Test results from ChEMBL document CHEMBL1177825, “Subtype-selectivity of metal-dependent methionine aminopeptidase inhibitors” (Bioorg Med Chem Lett, 2010).
pIC50: −log10 of the molar value. Calls of active or inactive are those of the source. The calls are words filed in the database; no cut-off is given here.

Experiments:
[1] = target: Methionine aminopeptidase 1 (Homo sapiens, UniProt P53582); assay: Inhibition of human MetAP1
Staphylococcus aureus = assay: Inhibition of Staphylococcus aureus MetAP at 25 uM
Escherichia coli = assay: Inhibition of Escherichia coli MetAP at 25 uM
[2] = Inhibition of Escherichia coli MetAP
[3] = Inhibition of Staphylococcus aureus MetAP
[4] = target: Methionine aminopeptidase 2 (Homo sapiens, UniProt P50579); assay: Inhibition of human MetAP2 expressed in baculovirus infected Sf9 cells
Sequence of Methionine aminopeptidase 2 (P50579 whole entry): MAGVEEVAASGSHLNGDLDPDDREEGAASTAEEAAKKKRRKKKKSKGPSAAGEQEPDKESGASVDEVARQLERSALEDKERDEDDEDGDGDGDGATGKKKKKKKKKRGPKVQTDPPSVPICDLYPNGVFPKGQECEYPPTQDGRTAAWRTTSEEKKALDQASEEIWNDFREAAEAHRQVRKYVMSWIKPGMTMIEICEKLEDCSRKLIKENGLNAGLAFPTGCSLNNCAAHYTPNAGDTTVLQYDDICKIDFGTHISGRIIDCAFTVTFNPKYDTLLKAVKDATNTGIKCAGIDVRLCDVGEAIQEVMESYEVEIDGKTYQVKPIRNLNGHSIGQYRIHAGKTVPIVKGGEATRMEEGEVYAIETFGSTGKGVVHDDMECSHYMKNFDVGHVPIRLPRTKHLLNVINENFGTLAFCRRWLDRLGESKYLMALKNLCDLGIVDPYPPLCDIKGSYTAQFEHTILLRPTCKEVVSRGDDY

Structure (SMILES)	pIC50 [1]	inhibition (Staphylococcus aureus)	inhibition (Escherichia coli)	pIC50 [2]	pIC50 [3]	pIC50 [4]
c1cc2nc(-c3cscn3)[nH]c2cn1	4.72	–	–	–	–	–
O=S(=O)(Oc1cccc2cccnc12)c1ccccn1	–	inactive	38%	–	–	–
Oc1cccc(-c2nc3ccccc3[nH]2)n1	–	47%	–	5.89	4.53	–
CCCSc1ccc2[nH]c(NC(=O)OC)nc2c1	–	10.5%	35%	–	–	–
CC(C)(C)c1ccc2[nH]c(-c3cscn3)nc2c1	–	30.2%	–	5.41	4.38	–
N#Cc1ccc2[nH]c(-c3ccccn3)nc2c1	–	29%	–	6.37	4.48	–
c1ccc(-c2nc3ncc[nH]c-3n2)nc1	–	51%	–	6.62	4.66	–
Fc1ccc2nc(-c3ccccn3)[nH]c2c1	–	31%	–	5.82	4.40	–
Nc1ccc2[nH]c(-c3cscn3)nc2c1	–	92%	–	5.47	5.64	–
Oc1cccnc1-c1nc2ccccc2[nH]1	–	97%	–	6.11	5.36	–
Cc1ccc2[nH]c(-c3ccccn3)nc2c1	–	–	–	–	–	5.11
c1cc2[nH]c(-c3cscn3)nc2cn1	–	32%	–	5.77	4.34	–
O=S(=O)(Nc1cccc2cccnc12)c1ccccc1	–	47%	93%	4.96	4.64	4.40
c1ccc(-c2nc3c[nH]cnc-3n2)nc1	–	18%	–	6.42	–	–
c1ccc(-c2nc3ccccc3[nH]2)nc1	4.55	56%	–	6.24	4.70	4.88
c1ccc(Cn2c(-c3ccccn3)nc3ccccc32)cc1	–	inactive	–	6.00	–	–
c1ccc(-c2nc3ccc[nH]c-3n2)nc1	–	76%	–	6.96	4.73	–
O=C(Oc1cccc2cccnc12)c1ccccc1 [BENZOXIQUINE]	–	10%	32%	–	–	4.46
CC(C)(C)c1ccc2[nH]c(-c3ccccn3)nc2c1	–	40.9%	–	5.59	4.41	–
c1ccc2[nH]c(-c3cscn3)nc2c1 [THIABENDAZOLE]	4.32	28%	86.3%	6.33	–	4.35
Oc1cccc2cccnc12 [OXYQUINOLINE]	4.67	65%	95%	6.11	4.74	5.25
Cc1cc(NS(=O)(=O)c2ccccn2)no1	–	inactive	21%	–	–	–
O=S(=O)(Nc1nccs1)c1ccccn1	–	–	23%	–	–	–
c1coc(-c2nc3ccccc3[nH]2)c1	–	10%	26%	–	–	–
c1ccc2[nH]c(-c3cnccn3)nc2c1	–	inactive	–	5.34	–	–

Structure (SMILES)	pIC50 [1]	inhibition (Staphylococcus aureus)	inhibition (Escherichia coli)	pIC50 [2]	pIC50 [3]	pIC50 [4]
N/C(S)=N/c1nc2ccccc2[nH]1	–	31%	–	5.05	4.44	–
O=S(=O)(Oc1cccc2cccnc12)c1ccccc1	–	62%	inactive	–	4.80	–
Cc1ccc(S(=O)(=O)Oc2cccc3cccnc23)cc1	–	inactive	inactive	–	–	–
COC(=O)Nc1nc2cc(C(=O)c3ccccc3)ccc2[nH]1	–	inactive	47%	–	–	–
Cc1cc2nc(-c3ccccn3)[nH]c2cc1C	–	87%	–	5.62	4.75	–
O=[N+]([O-])c1ccc2[nH]c(-c3ccccn3)nc2c1	4.54	inactive	–	6.80	–	–
COC(=O)Nc1nc2ccccc2[nH]1	–	inactive	34%	–	–	–
Nc1ccc2nc(-c3ccccn3)[nH]c2c1	–	–	–	–	–	5.03
Clc1ccc2nc(-c3ccccn3)[nH]c2c1	–	16%	–	5.77	–	–
O=C(Nc1cccc2cccnc12)c1ccccc1	–	inactive	inactive	–	–	–
c1csc(-c2nc3ccccc3[nH]2)c1	–	inactive	inactive	–	–	–
c1ccc(-c2nc3cc[nH]cc-3n2)nc1	–	55%	–	6.26	4.64	–
Cc1cc2nc(-c3cscn3)[nH]c2cc1C	–	17%	–	5.00	–	–
Clc1ccc2[nH]c(-c3cscn3)nc2c1	–	15%	–	5.28	–	–
c1cnc2nc(-c3nccs3)[nH]c2c1	–	21%	–	7.10	–	–
Cc1ccc2nc(-c3ccccn3)[nH]c2c1	–	68%	–	5.68	4.71	–
Nc1ccc2[nH]c(-c3ccccn3)nc2c1	–	92%	–	6.01	5.31	–
O=C(Nc1nccs1)c1ccc([N+](=O)[O-])cc1	–	inactive	inactive	–	–	–
Cc1cc(NC(=O)c2ccccn2)no1	–	20%	80%	5.55	–	–
COC(=O)Nc1nc2cc(Sc3ccccc3)ccc2[nH]1	–	12.5%	inactive	–	–	–
O=[N+]([O-])c1ccc2nc(-c3cscn3)[nH]c2c1	4.31	–	–	–	–	–
Oc1ccccc1-c1nc2ccccc2[nH]1	–	12%	66%	–	–	–
O=C(Nc1nccs1)c1ccccn1	5.09	58%	100%	7.22	4.67	4.59
c1cncc(-c2nc3ccccc3[nH]2)c1	–	20%	inactive	–	–	–
c1ccc2[nH]c(Nc3nccs3)nc2c1	–	52%	–	6.27	4.65	–
